Source: patent US9233957B2, “5-carbamoyl-adamantan-2-yl amide derivatives, pharmaceutically acceptable salts thereof and preparation process thereof” (SK BIOPHARMACEUTICALS CO., LTD., priority 2011, dated 2016)
Like-named read-outs stand apart in the source and are kept apart here.

Tests used:
Mouse 11b-HSD1 = target: T1, Mouse 11b-HSD1 (Mus musculus, UniProt P50172); assay: Inhibition of cortisone-to-cortisol conversion in CHO-K1 cells over-expressing mouse 11b-HSD1 (HTRF cortisol assay); type: cell-based; details: CHO-K1 cells over-expressing mouse 11b-HSD1, 160 nM cortisone, 3 hours, 37° C.
T1 construct: expressed in transfected cells
T1 sequence (P50172 whole entry): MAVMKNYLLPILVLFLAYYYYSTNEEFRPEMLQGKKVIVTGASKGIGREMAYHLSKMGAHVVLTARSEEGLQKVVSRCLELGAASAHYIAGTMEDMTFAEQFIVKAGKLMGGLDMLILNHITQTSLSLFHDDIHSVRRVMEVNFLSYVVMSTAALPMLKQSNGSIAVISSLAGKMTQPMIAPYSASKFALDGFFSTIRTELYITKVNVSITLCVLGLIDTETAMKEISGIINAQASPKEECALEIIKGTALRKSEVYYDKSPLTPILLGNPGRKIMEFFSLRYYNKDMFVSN
Text: (§1) cDNA (human: Accession No. U12978.2; mouse: Accession No. NM_008288.2) coding the full-length amino acid sequence of 11β-HSD1 in a human and a mouse was incorporated into pMSCVpuro (from Clontech. Co. Ltd.), a vector of expressing a mammalian cell for the production of a retrovirus, and the resulting product was introduced into a GP2-293 cell (from Clontech Co. Ltd.), a retrovirus packing cell line together with pVSV-G vector (from Clontech Co. Ltd.) by using a Lipotamine plus reagent (from Invitrogen Co. Ltd.) in accordance with the method set forth in the appendix (by using HTRF cortisol assay kit from Cisbio assays Co., Ltd., catalog No. 62CO2PEB) and stabilized for 48 hours. Thereafter, viruses being obtained from those cells were used to infect CHO-K1 cell (from Korean Cell Line Bank, KCLB No. 10061) and in 24 hours, the cells were treated with 10 μg/ml pumycin (from Sigma Co. Ltd.) for two weeks to produce a stabilized cell system wherein each 11β-HSD1 in humans or in mice was over-expressed. When the cells being maintained, 5 μg/ml of puromycin was put into the medium and used (RPMI (Gibco), 37° C.). • Reference material: The EMBO Journal (2008) 27, 642-653
(§2) The obtained cells with 11b-HSD1 in a human and a mouse being over-expressed were sub-cultured in a 96-well plate with a cell number being 3×10^4 cells per well and stabilized for 24 hours [RPMI (Gibco), at 37° C., as being used in 5 days after thawing]. After a medium as diluted with DMSO including 160 nM of cortisone (from Sigma Co. Ltd.) and a test compound at a different concentration was put into each well in an amount of 200 ul, the well was cultured in a cell cultivator at 37° C. for 3 hours. 10 ul of the cultured solution was put into a 384 well plate and the amount of cortisol as generated was measured using a cortisol kit (from Cisbio international Co. Ltd, HTRF assay) in accordance with the method set forth in the appended manual.
(§3) As a control group, 160 nM of cortisone and 1% of DMSO were put into a corresponding well. The ground value was obtained from a well including only 160 nM of cortisone and 1% of DMSO without cells just like the control group. The calculation for a % inhibition level was made following the manual as appended. • Reference material: The Journal of Steroid Biochemistry and Molecular Biology, Volume 104, Issues 3-5, May 2007, Pages 123-129 • Bioorganic & Medicinal Chemistry Letters Volume 19, Issue 10, 15 May 2009, Pages 2674-2678
(§4) Like the analyzing method as stated above, the efficacy of inhibiting 11b-HSD1 was calculated as IC50 and the results are shown in Table 1: […]

Human 11b-HSD1 = target: T2, Human 11b-HSD1 (Homo sapiens, UniProt P28845); assay: Inhibition of cortisone-to-cortisol conversion in CHO-K1 cells over-expressing human 11b-HSD1 (HTRF cortisol assay); type: cell-based; details: CHO-K1 cells over-expressing human 11b-HSD1, 160 nM cortisone, 3 hours, 37° C.
T2 construct: expressed in transfected cells
T2 sequence (P28845 whole entry): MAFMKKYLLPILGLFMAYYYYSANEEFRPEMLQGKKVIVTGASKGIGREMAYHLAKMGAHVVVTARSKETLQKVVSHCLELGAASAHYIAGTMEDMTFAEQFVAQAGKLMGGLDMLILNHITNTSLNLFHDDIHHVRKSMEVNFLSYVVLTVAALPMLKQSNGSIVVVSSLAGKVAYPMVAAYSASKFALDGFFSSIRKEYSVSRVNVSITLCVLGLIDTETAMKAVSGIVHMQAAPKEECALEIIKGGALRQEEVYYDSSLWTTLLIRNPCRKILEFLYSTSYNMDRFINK
Text: as §1, §2, §3, §4

11b-HSD1 = target: T3, 11b-HSD1 (Mus musculus, UniProt P50172); assay: Ex vivo PD assay: 11b-HSD1 inhibition in abdominal fat and liver tissue after oral administration to mice; details: mouse C57B1/6, oral, vs vehicle group; for inhibition at 10 mg/kg: 2 hr; for inhibition at 20 mg/kg: 6 hr
T3 construct: the tissues in abdominal fat and the liver were obtained; from tissue; host or cells: abdominal fat and liver of C57Bl/6 mice
T3 sequence (P50172 whole entry): as the sequence (P50172 whole entry) above
Method: The prepared compound was orally administered to a mouse (C57B1/6, orient 8 week old, about 25 g, male) and in a proper amount of time (2 hours, 6 hours, 12 hours, 16 hours, and 24 hours), the mouse was sacrificed and around 30 to 40 mg of the tissues in abdominal fat and the liver were obtained. To 500 ul of a medium (RPMI, gibco) including 1 μM of cortisone (from Sigma Co. Ltd.) and 400 μM of NADPH (from Sigma Co. Ltd) was added the tissue as obtained (30-40 mg), which then reacted in a cell cultivator at 37° C. for 3 hours. After 50 ul of the reacted solution was taken and diluted with DMEM medium at a volume ratio of 1/10, the amount of cortisol being generated was measured by using a cortisol kit (assay designs Co. Ltd., ELISA kit) in accordance with the method set forth in the appended manual. From the results being measured, the degree of the inhibition was obtained by the conversion in comparison with the vehicle group (vehicle: 5% DMSO+5% cremophor in dw, the amount being proportionate to the body weight, i.e., the administration was made at the same volume as the drug being introduced). • Reference material: Published Aug. 15, 2005//JEM vol. 202 no. 4 517-527 The Rockefeller University Press % inhibition={(the amount of cortisol of the vehicle group−the amount of the cortisol of the group with the compound being administered)/(the amount of cortisol of the vehicle group)}×100
According to the above analyzing method, the efficacy of inhibiting 11b-HSD1 of the test compound in the target organ was calculated as % inhibition values, which are shown in Table 2 and Table 3.

[1] = abdominal fat, read-out: 11b-HSD1 % inhibition in the fat
[2] = liver, read-out: 11b-HSD1 % inhibition in the liver

Row | SMILES | IC50 (Mouse 11b-HSD1) [nM] | IC50 (Human 11b-HSD1) [nM] | inhibition at 10 mg/kg (11b-HSD1; [1]) [%] | inhibition at 10 mg/kg (11b-HSD1; [2]) [%] | inhibition at 20 mg/kg (11b-HSD1; [1]) [%] | inhibition at 20 mg/kg (11b-HSD1; [2]) [%]
1 | NC(=O)[C@]12CC3CC(C1)[C@@H](NC(=O)c1ccc(-c4ccccc4)o1)C(C3)C2 [Example 1, N-(5-carbamoyl-2-adamantyl)-5-phenylfuran-2-carboxamide] | < 100 | < 100 | 91 | 85 | 83 | 70
2 | NC(=O)[C@]12CC3CC(C1)[C@@H](NC(=O)c1ccc(-c4ccc(Cl)cc4)o1)C(C3)C2 [Example 2, N-(5-carbamoyl-2-adamantyl)-5-(4-chlorophenyl)furan-2-carboxamide] | 100 to 500 | < 100 | 84 | 68 | 85 | 44
3 | NC(=O)[C@]12CC3CC(C1)[C@@H](NC(=O)c1ccc4ccccc4n1)C(C3)C2 [Example 18, N-(5-carbamoyl-2-adamantyl)quinoline-2-carboxamide] | < 100 | < 100 | 58 | 62 | 65 | 61
4 | NC(=O)[C@]12CC3CC(C1)[C@@H](NC(=O)c1cccc4cccnc14)C(C3)C2 [Example 19, N-(5-carbamoyl-2-adamantyl)quinoline-8-carboxamide] | < 100 | < 100 | 51 | 50 |  | 
5 | NC(=O)[C@]12CC3CC(C1)[C@@H](NC(=O)c1ccc(-c4cccc(Cl)c4)o1)C(C3)C2 [Example 26, N-(5-carbamoyl-2-adamantyl)-5-(3-chlorophenyl)furan-2-carboxamide] | < 100 | < 100 |  |  | 71 | 47
6 | NC(=O)[C@]12CC3CC(C1)[C@@H](NC(=O)c1ccc(-c4ccccc4Cl)o1)C(C3)C2 [Example 27, N-(5-carbamoyl-2-adamantyl)-5-(2-chlorophenyl)furan-2-carboxamide] | < 100 | < 100 |  |  | 80 | 65
7 | CCCOc1cccc(C(=O)N[C@H]2C3CC4CC2C[C@](C(N)=O)(C4)C3)n1 [Example 46, N-(5-carbamoyl-2-adamantyl)-6-propoxypyridine-2-carboxamide] | < 100 | < 100 |  |  |  | 
8 | NC(=O)[C@]12CC3CC(C1)[C@@H](NC(=O)c1cccc(OCc4ccccc4)n1)C(C3)C2 [Example 47, N-(5-carbamoyl-2-adamantyl)-6-phenylmethoxypyridine-2-carboxamide] | 100 to 500 | < 100 |  |  |  | 
9 | CCCOc1cccc2ccc(C(=O)N[C@H]3C4CC5CC3C[C@](C(N)=O)(C5)C4)nc12 [Example 49, N-(5-carbamoyl-2-adamantyl)-8-propoxyquinoline-2-carboxamide] | 100 to 500 | < 100 |  |  |  | 
10 | COc1cccc2ccc(C(=O)N[C@H]3C4CC5CC3C[C@](C(N)=O)(C5)C4)nc12 [Example 50, N-(5-carbamoyl-2-adamantyl)-8-methoxyquinoline-2-carboxamide] | 100 to 500 | < 100 |  |  |  | 
11 | CCOc1cccc2ccc(C(=O)N[C@H]3C4CC5CC3C[C@](C(N)=O)(C5)C4)nc12 [Example 51, N-(5-carbamoyl-2-adamantyl)-8-ethoxyquinoline-2-carboxamide] | < 100 | < 100 |  |  |  | 
12 | CC(C)Oc1cccc2ccc(C(=O)N[C@H]3C4CC5CC3C[C@](C(N)=O)(C5)C4)nc12 [Example 52, N-(5-carbamoyl-2-adamantyl)-8-propan-2-yloxyquinoline-2-carboxamide] | 100 to 500 | < 100 |  |  |  | 
13 | NC(=O)[C@]12CC3CC(C1)[C@@H](NC(=O)c1ccc4cccc(OCc5ccccc5)c4n1)C(C3)C2 [Example 53] | > 500 | < 100 |  |  |  | 
14 | CC(C)COc1cccc2ccc(C(=O)N[C@H]3C4CC5CC3C[C@](C(N)=O)(C5)C4)nc12 [Example 54, N-(5-carbamoyl-2-adamantyl)-8-(2-methylpropoxy)quinoline-2-carboxamide] | > 500 | < 100 |  |  |  | 
15 | CCC(C)Oc1cccc2ccc(C(=O)N[C@H]3C4CC5CC3C[C@](C(N)=O)(C5)C4)nc12 (stereo partly shown) [Example 56, 8-butan-2-yloxy-N-(5-carbamoyl-2-adamantyl)quinoline-2-carboxamide] | 100 to 500 | < 100 |  |  |  | 

Second part, the compound after the results:

Row | IC50 (Mouse 11b-HSD1) [nM] | IC50 (Human 11b-HSD1) [nM] | inhibition at 10 mg/kg (11b-HSD1; [1]) [%] | inhibition at 10 mg/kg (11b-HSD1; [2]) [%] | inhibition at 20 mg/kg (11b-HSD1; [1]) [%] | inhibition at 20 mg/kg (11b-HSD1; [2]) [%] | SMILES
16 | < 100 | < 100 |  |  |  |  | CN(C)c1cccc(C(=O)N[C@H]2C3CC4CC2C[C@](C(N)=O)(C4)C3)n1 [Example 57, N-(5-carbamoyl-2-adamantyl)-6-(dimethylamino)pyridine-2-carboxamide]
17 | < 100 | < 100 |  |  |  |  | NC(=O)[C@]12CC3CC(C1)[C@@H](NC(=O)c1cccc(N4CCCCC4)n1)C(C3)C2 [Example 58, N-(5-carbamoyl-2-adamantyl)-6-piperidin-1-yl-pyridine-2-carboxamide]
18 | < 100 | < 100 |  |  |  |  | CCN(CC)c1cccc(C(=O)N[C@H]2C3CC4CC2C[C@](C(N)=O)(C4)C3)n1 [Example 59, N-(5-carbamoyl-2-adamantyl)-6-(diethylamino)pyridine-2-carboxamide]
19 | < 100 | < 100 |  |  |  |  | CCCNc1cccc(C(=O)N[C@H]2C3CC4CC2C[C@](C(N)=O)(C4)C3)n1 [Example 60, N-(5-carbamoyl-2-adamantyl)-6-(propylamino)pyridine-2-carboxamide]
20 | < 100 | < 100 |  |  |  |  | NC(=O)[C@]12CC3CC(C1)[C@@H](NC(=O)c1cccc(N4CCc5ccccc5C4)n1)C(C3)C2 [Example 61, N-(5-carbamoyl-2-adamantyl)6-(3,4-dihydro-1H-isoquinolin-2-yl)pyridine-2-carboxamide]
21 | 100 to 500 | < 100 |  |  |  |  | NC(=O)[C@]12CC3CC(C1)[C@@H](NC(=O)c1cccc(N4CCC(c5ccccc5)CC4)n1)C(C3)C2 [Example 62, N-(5-carbamoyl-2-adamantyl)-6-(4-phenylpiperidin-1-yl)pyridine-2-carboxamide]
22 | > 500 | 100 to 500 |  |  |  |  | Cc1cccc(C(=O)N[C@H]2C3CC4CC2C[C@](C(N)=O)(C4)C3)[n+]1[O-] [Example 63, N-(5-carbamoyl-2-adamantyl)-6-methyl-1-oxidopyridine-1-ium-2-carboxamide]
23 | 100 to 500 | < 100 |  |  |  |  | CN(C)c1cccc(C(=O)N[C@H]2C3CC4CC2C[C@](C(N)=O)(C4)C3)[n+]1[O-] [Example 65, N-(5-carbamoyl-2-adamantyl)-6-(dimethylamino)-1-oxidopyridin-1-ium-2-carboxamide]
